According to US20250228239A1, “MOLECULES HAVING PESTICIDAL UTILITY, AND INTERMEDIATES, COMPOSITIONS, AND PROCESSES, RELATED THERETO” (priority 2024, published 2025):
Like-named read-outs stand apart in the source and are kept apart here.

How the values were obtained:
Assay type in all cases: in vivo
[1] = system: Yellow Fever Mosquito (Aedes aegypti, AEDSAE)
Experimental: Certain molecules disclosed in this document were tested against YFM using procedures described in the following paragraph. In the reporting of the results, the “GPA & YFM Rating Table” was used (See Table Section).
Master plates containing 400 μg of a molecule dissolved in 100 μL of dimethyl sulfoxide (DMSO) (equivalent to a 4000 ppm solution) are used. A master plate of assembled molecules contains 15 μL per well. To this plate, 135 μL of a 90:10 water/acetone mixture is added to each well. A robot (Biomek® NXP Laboratory Automation Workstation) is programmed to dispense 15 μL aspirations from the master plate into an empty 96-well shallow plate (“daughter” plate). There are 6 reps (“daughter” plates) created per master. The created “daughter” plates are then immediately infested with YFM larvae.
The day before plates are to be treated, mosquito eggs are placed in Millipore water containing liver powder to begin hatching (4 g into 400 mL). After the “daughter” plates are created using the robot, they are infested with 220 μL of the liver powder/larval mosquito mixture (about 1 day-old larvae). After plates are infested with mosquito larvae, a non-evaporative lid is used to cover the plate to reduce drying. Plates are held at room temperature for 3 days prior to grading. After 3 days, each well is observed and scored based on mortality. The results are indicated in the table entitled “Table ABC: Biological Results” (See Table Section).

[2] = system: Beet Armyworm (Spodoptera exigua, LAPHEG); assay: Bioassays on Beet Armyworm (BAW), 128-well diet tray assay; conditions: Spodoptera exigua
In short: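 Mortality of second-instar larvae (1–5/well) on artificial diet treated with 50 μg/cm^2 compound, read after 5–7 days at 25° C.; values are means of eight wells.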

[3] = system: Cabbage Looper (Trichoplusia ni, TRIPNI); assay: Bioassays on Cabbage Looper (CL), 128-well diet tray assay; conditions: Trichoplusia ni
In short: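 Test molecule was dissolved in 90:10 acetone-water, applied to artificial diet at 50 μg/cm^2 and allowed to dry. Second-instar larvae were then added, one to five per well, and trays held at 25° C for five to seven days before mortality was scored and averaged.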

[4] = Beet Armyworm, rating class, read-out: BAW
[5] = Cabbage Looper, rating class, read-out: CL
[6] = Table ABC: Biological Results, species BAW, read-out: BAW
[7] = Table ABC: Biological Results, species CL, read-out: CL
[8] = Beet Armyworm, Table ABC / ABC-DP rating, read-out: BAW rating
[9] = Cabbage Looper, Table ABC / ABC-DP rating, read-out: CL rating

Structure (SMILES): O=C(NNc1ccc(C(F)(F)F)cc1)c1cc(NC(=O)[C@H]2[C@H](c3cc(Cl)cc(Cl)c3)C2(Cl)Cl)ccc1Cl (relative stereo) [F2571, trans-2,2-Dichloro-N-(4-chloro-3-(2-(4-(trifluoromethyl)phenyl)hydrazine-1-carbonyl)phenyl)-3-(3,5-dichlorophenyl)cyclopropane-1-carboxamide]
- YFM rating ([1]; Yellow Fever Mosquito, Table ABC / ABC-DP rating): A (80–100)
- YFM % Control (or Mortality) rating ([1]; about 1 day-old larvae, 4000 ppm master solution diluted with 90:10 water/acetone, 15 μL per well plus 220 μL larval mixture, 3 days, mortality): A (80–100)

Structure (SMILES): Cc1cc(NC(=O)[C@H]2[C@H](c3ccc(F)c(C(F)(F)F)c3)C2(Cl)Cl)cc(C(=O)Nc2c(F)ccc(N)c2F)c1Cl [F1428, N-(3-Amino-2,6-difluorophenyl)-2-chloro-5-((1R,3R)-2,2-dichloro-3-(4-fluoro-3-(trifluoromethyl)phenyl)cyclopropane-1-carboxamido)-3-methylbenzamide]
- pest or weed control at 50 µg/cm2 [2, 4]: 50 to 100%
- pest or weed control at 50 µg/cm2 [3, 5]: 50 to 100%

Structure (SMILES): O=C(Nc1ccc(F)cc1F)c1cc(NC(=O)[C@@H]2[C@@H](c3ccc(F)c(F)c3)C2(Cl)Cl)ccc1Cl [F1751, 2-Chloro-5-((1S,3S)-2,2-dichloro-3-(3,4-difluorophenyl)cyclopropane-1-carboxamido)-N-(2,4-difluorophenyl)benzamide]
- pest or weed control at 50 µg/cm2 [2, 4]: 50 to 100%
- pest or weed control at 50 µg/cm2 [3, 5]: 50 to 100%

Structure (SMILES): O=C(Nc1ccc(Br)cc1F)c1cc(NC(=O)[C@H]2[C@H](c3cc(Cl)cc(Cl)c3)C2(Cl)Cl)ccc1Cl (relative stereo) [F1306, trans-N-(4-Bromo-2-fluorophenyl)-2-chloro-5-(2,2-dichloro-3-(3,5-dichlorophenyl)cyclopropane-1-carboxamido)benzamide]
- pest or weed control at 50 µg/cm2 [2, 6]: 50 to 100%
- pest or weed control at 50 µg/cm2 [3, 7]: 50 to 100%

Structure (SMILES): CC(=O)Nc1c(F)ccc(NC(=O)c2cc(NC(=O)[C@H]3[C@H](c4ccc(Cl)c(Cl)c4)C3(Cl)Cl)ccc2F)c1F [F1493, N-(3-Acetamido-2,4-difluorophenyl)-5-((1R,3R)-2,2-dichloro-3-(3,4-dichlorophenyl)cyclopropane-1-carboxamido)-2-fluorobenzamide]
- pest or weed control at 50 µg/cm2 [2, 4]: 50 to 100%
- pest or weed control at 50 µg/cm2 [3, 5]: 50 to 100%

Structure (SMILES): CC(=O)Nc1c(F)ccc(NC(=O)c2cc(NC(=O)[C@H]3[C@H](c4ccc(Cl)c(Cl)c4)C3(Cl)Cl)cc(C)c2Cl)c1F [F1543, N-(3-Acetamido-2,4-difluorophenyl)-2-chloro-5-((1R,3R)-2,2-dichloro-3-(3,4-dichlorophenyl)cyclopropane-1-carboxamido)-3-methylbenzamide]
- pest or weed control at 50 µg/cm2 [2, 4]: 50 to 100%
- pest or weed control at 50 µg/cm2 [3, 5]: 50 to 100%

Structure (SMILES): O=C(CCBr)Nc1c(F)ccc(NC(=O)c2cc(NC(=O)[C@H]3[C@H](c4ccc(F)c(C(F)(F)F)c4)C3(Cl)Cl)ccc2Cl)c1F [F1851, N-(3-(3-Bromopropanamido)-2,4-difluorophenyl)-2-chloro-5-((1R,3R)-2,2-dichloro-3-(4-fluoro-3-(trifluoromethyl)phenyl)cyclopropane-1-carboxamido)benzamide]
- pest or weed control at 50 µg/cm2 [2, 8]: 50 to 100%
- pest or weed control at 50 µg/cm2 [3, 9]: 50 to 100%

Structure (SMILES): CC(C)(C)OC(=O)N(C(=O)OC(C)(C)C)c1c(F)ccc(NC(=O)c2cc(NC(=O)[C@H]3[C@H](c4cc(F)cc(C(F)(F)F)c4)C3(Cl)Cl)ccc2Cl)c1F [F1681, tert-Butyl N-tert-butoxycarbonyl-N-[3-[[2-chloro-5-[[(1R,3R)-2,2-dichloro-3-[3-fluoro-5-(trifluoromethyl)phenyl]cyclopropanecarbonyl]amino]benzoyl]amino]-2,6-difluoro-phenyl]carbamate]
- pest or weed control at 50 µg/cm2 [2, 4]: 50 to 100%
- pest or weed control at 50 µg/cm2 [3, 5]: 50 to 100%

Structure (SMILES): O=C(Nc1c(F)cc(F)cc1F)c1cc(NC(=O)[C@@H]2[C@@H](c3cc(Cl)cc(Cl)c3)C2(Cl)Cl)ccc1Cl (single isomer, unassigned) [F1378]
- pest or weed control at 50 µg/cm2 [2, 6]: 0 to 50%
- pest or weed control at 50 µg/cm2 [3, 7]: 50 to 100%

Structure (SMILES): CC(=O)Nc1c(F)ccc(NC(=O)c2cc(NC(=O)[C@H]3[C@H](c4ccc(F)c(C(F)(F)F)c4)C3(Cl)Cl)cc(C)c2Cl)c1F [F1545, N-(3-acetamido-2,4-difluorophenyl)-2-chloro-5-((1R,3R)-2,2-dichloro-3-(4-fluoro-3-(trifluoromethyl)phenyl)cyclopropane-1-carboxamido)-3-methylbenzamide]
- pest or weed control at 50 µg/cm2 [2, 4]: 50 to 100%
- pest or weed control at 50 µg/cm2 [3, 5]: 50 to 100%

Structure (SMILES): O=C(Nc1cc(NC(=O)C(F)(F)F)c(F)cc1F)c1cc(NC(=O)[C@H]2[C@H](c3ccc(F)c(Cl)c3)C2(Cl)Cl)cc(F)c1Cl [F1401, 2-Chloro-5-((1R,3R)-2,2-dichloro-3-(3-chloro-4-fluorophenyl)cyclopropane-1-carboxamido)-N-(2,4-difluoro-5-(2,2,2-trifluoroacetamido)phenyl)-3-fluorobenzamide]
- pest or weed control at 50 µg/cm2 [2, 4]: 50 to 100%
- pest or weed control at 50 µg/cm2 [3, 5]: 50 to 100%

Structure (SMILES): Nc1c(F)ccc(NC(=O)c2cc(NC(=O)[C@H]3[C@H](c4ccc(Cl)c(Cl)c4)C3(Cl)Cl)cc(F)c2Cl)c1F [F1284, N-(3-Amino-2,4-difluorophenyl)-2-chloro-5-((1R,3R)-2,2-dichloro-3-(3,4-dichlorophenyl)cyclopropane-1-carboxamido)-3-fluorobenzamide]
- pest or weed control at 50 µg/cm2 [2, 6]: 50 to 100%
- pest or weed control at 50 µg/cm2 [3, 7]: 50 to 100%

Structure (SMILES): O=C(Nc1ccc(F)c(NC(=O)C(F)(F)C(F)(F)OC(F)(F)F)c1F)c1cc(NC(=O)[C@H]2[C@H](c3ccc(F)c(C(F)(F)F)c3)C2(Cl)Cl)ccc1Cl [F1834, 2-Chloro-5-((1R,3R)-2,2-dichloro-3-(4-fluoro-3-(trifluoromethyl)phenyl)cyclopropane-1-carboxamido)-N-(2,4-difluoro-3-(2,2,3,3-tetrafluoro-3-(trifluoromethoxy)propanamido)phenyl)benzamide]
- pest or weed control at 50 µg/cm2 [2, 8]: 50 to 100%
- pest or weed control at 50 µg/cm2 [3, 9]: 50 to 100%

Structure (SMILES): Nc1cc(F)c(NC(=O)c2cc(NC(=O)[C@H]3[C@H](c4cc(Cl)c(Cl)c(Cl)c4)C3(Cl)Cl)ccc2Cl)c(F)c1 [F1029, N-(4-Amino-2,6-difluorophenyl)-2-chloro-5-((1R,3R)-2,2-dichloro-3-(3,4,5-trichlorophenyl)cyclopropane-1-carboxamido)benzamide]
- pest or weed control at 50 µg/cm2 [2, 6]: 50 to 100%
- pest or weed control at 50 µg/cm2 [3, 7]: 50 to 100%

Structure (SMILES): Cc1cc(NC(=O)[C@H]2[C@H](c3ccc(F)c(C(F)(F)F)c3)C2(Cl)Cl)cc(C(=O)Nc2c(F)ccc(NC(=O)C(F)(F)F)c2F)c1Cl [F1469, 2-Chloro-5-((1R,3R)-2,2-dichloro-3-(4-fluoro-3-(trifluoromethyl)phenyl)cyclopropane-1-carboxamido)-N-(2,6-difluoro-3-(2,2,2-trifluoroacetamido)phenyl)-3-methylbenzamide]
- pest or weed control at 50 µg/cm2 [2, 4]: 50 to 100%
- pest or weed control at 50 µg/cm2 [3, 5]: 50 to 100%

Structure (SMILES): O=C(Nc1cc(NC(=O)C(F)F)c(F)cc1F)c1cc(NC(=O)[C@H]2[C@H](c3ccc(F)c(C(F)(F)F)c3)C2(Cl)Cl)cc(F)c1Cl [F1406, 2-Chloro-5-((1R,3R)-2,2-dichloro-3-(4-fluoro-3-(trifluoromethyl)phenyl)cyclopropane-1-carboxamido)-N-(5-(2,2-difluoroacetamido)-2,4-difluorophenyl)-3-fluorobenzamide]
- pest or weed control at 50 µg/cm2 [2, 4]: 50 to 100%
- pest or weed control at 50 µg/cm2 [3, 5]: 50 to 100%

Structure (SMILES): O=C(NCC(F)(F)C(F)(F)F)c1cc(NC(=O)[C@H]2[C@H](c3ccc(F)c(Cl)c3)C2(Cl)Cl)cc(Cl)c1F (relative stereo) [F2046, trans-3-Chloro-5-(2,2-dichloro-3-(3-chloro-4-fluorophenyl)cyclopropane-1-carboxamido)-2-fluoro-N-(2,2,3,3,3-pentafluoropropyl)benzamide]
- pest or weed control at 50 µg/cm2 [2, 8]: 50 to 100%
- pest or weed control at 50 µg/cm2 [3, 9]: 50 to 100%

Structure (SMILES): Cc1cc(NC(=O)[C@H]2[C@H](c3ccc(Cl)c(Cl)c3)C2(Cl)Cl)cc(C(=O)Nc2c(F)ccc(NC(=O)C(F)F)c2F)c1Cl [F1429, 2-Chloro-5-((1R,3R)-2,2-dichloro-3-(3,4-dichlorophenyl)cyclopropane-1-carboxamido)-N-(3-(2,2-difluoroacetamido)-2,6-difluorophenyl)-3-methylbenzamide]
- pest or weed control at 50 µg/cm2 [2, 4]: 50 to 100%
- pest or weed control at 50 µg/cm2 [3, 5]: 50 to 100%

Structure (SMILES): O=C(Nc1cccc(F)c1[N+](=O)[O-])c1cc(NC(=O)[C@H]2[C@H](c3ccc(F)c(Cl)c3)C2(Cl)Cl)ccc1Cl [F1081, 2-Chloro-5-((1R,3R)-2,2-dichloro-3-(3-chloro-4-fluorophenyl)cyclopropane-1-carboxamido)-N-(3-fluoro-2-nitrophenyl)benzamide]
- pest or weed control at 50 µg/cm2 [2, 6]: 50 to 100%
- pest or weed control at 50 µg/cm2 [3, 7]: 50 to 100%
